# Laboratory results published in US20110287059A1, “HONEY ANALYSIS” (COMVITA NEW ZEALAND LIMITED, priority 2008, published 2011).
# Assay: Antioxidant activity by ABTS radical assay (Trolox Equivalent Antioxidant Capacity)
# Format: biochemical
# Conditions: standard
# Experimental: Antioxidant activity was determined by the ABTS assay using a spectrophotometric method for antioxidant activity using the ABTS radical assay (expressed as Trolox Equivalent Antioxidant Capacity) based on the method of Miller & Rice-Evans (Miller, N.J.; Rice-Evans, C.A. 1997: Factors influencing the antioxidant activity determined by the ABTS+radical cation assay. Free Radical Research 26(3): 195-199). All samples were diluted with warm water as required to bring into the appropriate range for the assay.
compound,measurement,setting,value
"COc1ccccc1C(=O)O [2-methoxybenzoic, 2-methoxybenzoic acid]","Antioxidant Activity by ABTS Assay, Average",80 mg/kg,51.8 μmole TEAC/100 g
O=C(O)c1cc(O)c(O)c(O)c1 [gallic acid],"Antioxidant Activity by ABTS Assay, Average",700 mg/kg,1695.4 μmole TEAC/100 g
"COC(=O)c1cc(OC)c(O)c(OC)c1 [methylsyringate, methyl syringate]","Antioxidant Activity by ABTS Assay, Average",290 mg/kg,85.1 μmole TEAC/100 g
COc1cc(C(=O)O)cc(OC)c1O [syringic acid],"Antioxidant Activity by ABTS Assay, Average",760 mg/kg,499.6 μmole TEAC/100 g
